# Results from patent publication US10519114B2, “Peptidomimetics and methods of using the same” (The Regents of the University of Michigan, priority 2016, dated 2019).
# Tests used:
# [1] = target: T1, rat μ (C6-MOR) opioid receptor (Rattus norvegicus, UniProt P33535); experiment: Radioligand binding assay, [3H]diprenorphine displacement, MOR; conditions: displacement of 0.2 nM [3H]diprenorphine, C6-MOR membranes; mean ± standard error
# T1 construct: expressed in transfected cells
# Procedure: (§1) In Vitro Pharmacology-Cell Lines and Membrane Preparations. All tissue culture reagents were purchased from Gibco Life Sciences (Grand Island, N.Y., U.S.). C6-rat glioma cells stably transfected with a rat μ (C6-MOR) or rat δ (C6-DOR) opioid receptor20 and Chinese hamster ovary (CHO) cells stably expressing a human K (CHO-KOR) opioid receptor21 were used for all in vitro assays. Cells were grown to confluence at 37° C. in 5% CO2 in Dulbecco's modified Eagle medium containing 10% fetal bovine serum and 5% penicillin/streptomycin. Membranes were prepared by washing confluent cells three times with ice cold phosphate buffered saline (0.9% NaCl, 0.61 mM Na2HPO4, 0.38 mM KH2PO4, pH 7.4). Cells were detached from the plates by incubation in warm harvesting buffer (20 mM HEPES, 150 mM NaCl, 0.68 mM EDTA, pH 7.4) and pelleted by centrifugation at 200 g for 3 min. The cell pellet was suspended in ice-cold 50 mM Tris-HCl buffer, pH 7.4, and homogenized with a Tissue Tearor (Biospec Products, Inc., Bartlesville, Okla., U.S.) for 20 s at setting 4. The homogenate was centrifuged at 20 000 g for 20 min at 4° C., and the pellet was rehomogenized in 50 mM Tris-HCl with a Tissue Tearor for 10 s at setting 2, followed by recentrifugation. The final pellet was resuspended in 50 mM Tris-HCl and frozen in aliquots at […]. Protein concentration was determined via Bradford assay using bovine serum albumin as the standard.
# (§2) Radioligand Binding Assays. Radioactive compounds were purchased from Perkin-Elmer (Waltham, Mass., U.S.). Opioid ligand binding assays were performed using competitive displacement of 0.2 nM [3H]diprenorphine (250 μCi, 1.85 TBq/mmol) by the test compound from membrane preparations containing opioid receptors. The assay mixture, containing membrane suspension (20 μg protein/tube) in 50 mM Tris-HCl buffer (pH 7.4), [3H]diprenorphine, and various concentrations of test peptide, was incubated at room temperature for 1 h to allow binding to reach equilibrium. The samples were rapidly filtered through Whatman GF/C filters using a Brandel harvester (Brandel, Gaithersburg, Md., U.S.) and washed three times with 50 mM Tris-HCl buffer. The radioactivity retained on dried filters was determined by liquid scintillation counting after saturation with EcoLume liquid scintillation cocktail in a Wallac 1450 MicroBeta (Perkin-Elmer, Waltham, Mass., U.S.). Nonspecific binding was determined using 10 μM naloxone. Inhibitory constant (Ki) values were calculated using nonlinear regression analysis to fit a logistic equation to the competition data using GraphPad Prism, version 5.01, for Windows (GraphPad Software Inc., La Jolla, Calif.). The results presented are the mean±standard error from at least three separate assays performed in duplicate.
# [2] = target: T2, rat δ (C6-DOR) opioid receptor (Rattus norvegicus, UniProt P33533); experiment: Radioligand binding assay, [3H]diprenorphine displacement, DOR; conditions: displacement of 0.2 nM [3H]diprenorphine, C6-DOR membranes; mean ± standard error
# T2 construct: expressed in transfected cells
# Procedure: as §1, §2
# [3] = target: T3, human κ (CHO-KOR) opioid receptor (Homo sapiens, UniProt P41145); experiment: Radioligand binding assay, [3H]diprenorphine displacement, KOR; conditions: displacement of 0.2 nM [3H]diprenorphine, CHO-KOR membranes; mean ± standard error
# T3 construct: expressed in transfected cells
# Procedure: as §1, §2
# [4] = target: T1, rat μ (C6-MOR) opioid receptor; experiment: Stimulation of [35S]GTPγS binding, MOR; format: biochemical; conditions: for EC50 / EC50 (nm) MOR: [35S]GTPγS binding, C6-MOR membranes, mean ± standard error; for Emax / % stimulation MOR: [35S]GTPγS maximal stimulation compared with 10 μM standard DAMGO
# Procedure: as §1
# (§3) Stimulation of [^35S]GTPyS Binding. Agonist stimulation of [35S]guanosine 5′-O-[γ-thio]triphosphate ([^35S]GTPγS, 1250 Ci, 46.2 TBq/mmol) binding was measured as described previously Briefly, membranes (10-20 μg of protein/tube) were incubated 1 h at room temperature in GTPyS buffer (50 mM Tris-HCl, 100 mM NaCl, 5 mM MgCl2, pH 7.4) containing 0.1 nM [^35S]GTPγS, 30 μM guanosine diphosphate (GDP), and varying concentrations of test peptides. Peptide stimulation of [^35S]GTPyS was compared with 10 μM standard compounds [D-Ala^2,N-MePhe^4,Gly-ol]encephalin (DAMGO) at MOR, D-Pen^2,5-enkephalin (DPDPE) at DOR, or […] at KOR. The reaction was terminated by rapidly filtering through GF/C filters and washing 10 times with GTPyS buffer, and retained radioactivity was measured as described above. The results presented are the mean±standard error from at least three separate assays performed in duplicate; maximal stimulation was determined using nonlinear regression analysis with GraphPad Prism (GraphPad Software Inc., La Jolla, Calif.).
# [5] = target: T2, rat δ (C6-DOR) opioid receptor; experiment: Stimulation of [35S]GTPγS binding, DOR; format: biochemical; conditions: for EC50 (nm) DOR / EC50: [35S]GTPγS binding, C6-DOR membranes, mean ± standard error; for % stimulation DOR / Emax: [35S]GTPγS maximal stimulation compared with 10 μM standard DPDPE
# Procedure: as §1, §3
# [6] = target: T3, human κ (CHO-KOR) opioid receptor; experiment: Stimulation of [35S]GTPγS binding, KOR; format: biochemical; conditions: for EC50 (nm) KOR / EC50: [35S]GTPγS binding, CHO-KOR membranes, mean ± standard error; for % stimulation KOR / Emax: [35S]GTPγS maximal stimulation compared with 10 μM standard U-69,593
# Procedure: as §1, §3
# T3 sequence (P41145 whole entry): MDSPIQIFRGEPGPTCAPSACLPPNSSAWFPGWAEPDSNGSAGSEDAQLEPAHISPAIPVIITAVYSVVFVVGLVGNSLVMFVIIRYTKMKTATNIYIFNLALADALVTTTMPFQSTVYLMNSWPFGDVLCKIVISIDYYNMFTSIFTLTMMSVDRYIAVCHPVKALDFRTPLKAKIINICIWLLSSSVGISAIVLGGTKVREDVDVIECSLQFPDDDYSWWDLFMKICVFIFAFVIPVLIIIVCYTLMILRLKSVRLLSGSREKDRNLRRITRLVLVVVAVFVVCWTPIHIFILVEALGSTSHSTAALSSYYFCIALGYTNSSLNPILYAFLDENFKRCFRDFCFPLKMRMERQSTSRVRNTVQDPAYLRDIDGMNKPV
# T2 sequence (P33533 whole entry): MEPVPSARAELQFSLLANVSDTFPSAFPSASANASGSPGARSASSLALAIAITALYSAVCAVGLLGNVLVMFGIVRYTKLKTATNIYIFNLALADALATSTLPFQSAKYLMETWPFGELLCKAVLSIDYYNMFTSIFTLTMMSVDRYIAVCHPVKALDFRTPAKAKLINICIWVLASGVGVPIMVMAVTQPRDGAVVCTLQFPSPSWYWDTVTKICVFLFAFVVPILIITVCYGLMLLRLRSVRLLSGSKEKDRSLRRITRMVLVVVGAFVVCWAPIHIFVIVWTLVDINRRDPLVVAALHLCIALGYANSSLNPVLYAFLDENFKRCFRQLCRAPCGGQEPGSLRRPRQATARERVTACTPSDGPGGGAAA
# T1 sequence (P33535 whole entry): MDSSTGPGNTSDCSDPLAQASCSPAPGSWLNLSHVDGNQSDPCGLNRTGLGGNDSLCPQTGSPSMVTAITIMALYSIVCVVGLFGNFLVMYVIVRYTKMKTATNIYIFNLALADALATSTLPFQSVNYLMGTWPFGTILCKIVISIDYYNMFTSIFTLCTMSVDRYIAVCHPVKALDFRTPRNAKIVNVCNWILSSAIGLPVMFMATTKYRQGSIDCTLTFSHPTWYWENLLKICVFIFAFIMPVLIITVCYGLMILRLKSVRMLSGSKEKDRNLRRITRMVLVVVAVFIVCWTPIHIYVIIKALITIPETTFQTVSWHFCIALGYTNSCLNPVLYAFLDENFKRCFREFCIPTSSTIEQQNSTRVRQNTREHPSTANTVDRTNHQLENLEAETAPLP
SMILES,Ki [1] [nM],Ki [2] [nM],Ki [3] [nM],EC50 [4] [nM],Emax [4] [%],EC50 (nm) DOR [5],% stimulation DOR [5],EC50 (nm) KOR [6],% stimulation KOR [6],Emax [5] [%],EC50 [6] [nM],Emax [6] [%],EC50 [5] [nM],EC50 (nm) MOR [4],% stimulation MOR [4]
CC(=O)N1CC[C@@H](NC(=O)[C@@H](N)Cc2c(C)cc(O)cc2C)c2cc(CN3CCc4cccc(C(F)(F)F)c4C3)ccc21 [Compound 1066],0.16 ± 0.01,3.05 ± 0.88,59.2 ± 12.4,1.25 ± 0.44,55.1 ± 2.83,dns,dns,dns,dns,,,,,,
Cc1cc(O)cc(C)c1C[C@H](N)C(=O)N[C@@H]1CCCc2ccc(-c3cccc4ccccc34)cc21 [Compound 1115],5.44 ± 2.7,45.5 ± 26.9,131 ± 42.3,,0.34 ± 3.26,,,,,-2.57 ± 4.3,200,3.82 ± 3.2,,,
Cc1cc(O)cc(C)c1C[C@H](N)C(=O)N[C@@H]1C[C@@H](C)Nc2ccc(Cc3ccccc3)cc21 [Compound 1014],1.24 ± 0.5,87.2 ± 56.2,238 ± 21.7,8.93 ± 4,87.8 ± 2,,,,,44.9 ± 8.25,4070,28.9 ± 12.3,627 ± 88.9,,
Cc1cc(O)cc(C)c1C[C@H](N)C(=O)N[C@H]1c2cc(Cc3ccccc3)ccc2NC[C@H]1C [Compound 1078],0.75 ± 0.03,2.02 ± 0.21,17.7 ± 2.24,3.14 ± 1.51,80.2 ± 7.89,,,,,21.4,900 ± 326,26.4 ± 5.75,30.9,,
Cc1cc(O)cc(C)c1C[C@H](N)C(=O)N[C@@H]1CCNc2ccc(CN3CCC4(CCCCC4)CC3)cc21 [Compound 1060],0.22 ± 0.1,36.5 ± 18.9,2.44 ± 0.99,,,dns,dns,,,,92.1 ± 15.5,71.6 ± 4.38,,dns,dns
Cc1cc(O)cc(C)c1C[C@H](N)C(=O)N[C@@H]1CCNc2c(C(=O)Nc3ccccc3)cc(Cc3ccccc3)cc21 [Compound 1103],0.36,2.17,29.4,27.3,62.7,dns,dns,,,,,,,,
Cc1cc(O)cc(C)c1C[C@H](N)C(=O)N[C@@H]1CCNc2ccc(Cc3c(Cl)cccc3Cl)cc21 [Compound 1032],0.08 ± 0.01,4.61 ± 0.06,4.85 ± 0.66,2040,33.6,dns,dns,,,,,0,,,
Cc1cc(O)cc(C)c1C[C@H](N)C(=O)N[C@@H]1CCN2CCCc3cc(Cc4ccccc4)cc1c32 [Compound 1069],0.39 ± 0.14,2.26 ± 0.8,6.62 ± 2.57,1.12 ± 0.52,95.2 ± 3.99,,,,,50.4 ± 13.7,1000,78.4,570 ± 298,,
Cc1cc(O)cc(C)c1C[C@H](N)C(=O)N[C@H]1CCNc2cc(Cc3ccccc3)ccc21 [Compound 1024],21.1 ± 11.9,295 ± 108,1030,,,dns,dns,,,,,,,dns,dns
Cc1cc(O)cc(C)c1C[C@H](N)C(=O)N[C@@H]1CCNc2ccc(CC3Cc4ccc(O)cc4C3)cc21 (stereo partly shown) [Compound 1038],0.73,19.9 ± 4.12,38.5,11.9 ± 4.96,16.2 ± 3.43,,,,,10.5,,,261,,
CC(=O)N1CC[C@H](NC(=O)[C@@H](N)Cc2c(C)cc(O)cc2C)c2cc(Oc3ccccc3)ccc21 [Compound 1020],6.25 ± 1.39,92.9 ± 15.1,787,598 ± 282,60.4 ± 2.04,,,,,16,,,204,,
Cc1cc(O)cc(C)c1C[C@H](N)C(=O)N[C@@H]1CCNc2c(Cc3ccccc3)cccc21 [Compound 1039],57.7,246,977,988,17.9,dns,dns,,,,,,,,
COC(=O)N1CC[C@@H](NC(=O)[C@@H](N)Cc2c(C)cc(O)cc2C)c2cc(CC3Cc4ccccc4C3)ccc21 [Compound 1044],0.09 ± 0.02,0.26 ± 0.05,10.4,0.4,82.5,dns,dns,,,,,,,,
Cc1cc(O)cc(C)c1C[C@H](N)C(=O)N[C@@H]1CCNc2cc(O)c(Cc3ccccc3)cc21 [Compound 1046],0.33 ± 0.14,2.74 ± 0.05,15.1,9.86 ± 3.79,94.7 ± 4.19,,,,,20.3,,,237,,
"Cc1cc(O)cc(C)c1C[C@H](N)C(=O)N[C@@H]1CCNc2ccc(CC3Cc4cccc(O)c4C3)cc21 (stereo partly drawn) [Compound 1036, (2S)-2-amino-N-((4R)-6-((4-hydroxy-2,3-dihydro-1H-inden-2-yl)methyl)-1,2,3,4-tetrahydroquinolin-4-yl)-3-(4-hydroxy-2,6-dimethylphenyl)propanamide]",0.18 ± 0.03,6.01 ± 1.31,20.6 ± 16.3,4.93 ± 1.15,69.1 ± 5.74,dns,dns,,,,,,,,
CCCc1cc(Br)cc2c1NCC[C@H]2NC(=O)[C@@H](N)Cc1c(C)cc(O)cc1C [Compound 1058],21.7 ± 8.06,45.9 ± 22.6,208 ± 16,859,12.6,,,dns,dns,,,,,,
Cc1cc(O)cc(C)c1C[C@H](N)C(=O)N[C@@H]1CCNc2ccc(CC3Cc4ccccc4C3C)cc21 (stereo partly shown) [Compound 1043],0.43 ± 0.18,12 ± 1.17,35.7 ± 23.6,3.21 ± 1.25,92.4 ± 8.06,dns,dns,,,,,,,,
CCCC(=O)N1CC[C@@H](NC(=O)[C@@H](N)Cc2c(C)cc(O)cc2C)c2cc(CC3Cc4ccccc4C3)ccc21 [Compound 1034],0.13 ± 0.02,0.38 ± 0.07,25.5 ± 0.85,4.08 ± 1.58,63.2 ± 12.6,dns,dns,,,,,,,,
Cc1cc(O)cc(C)c1C[C@H](N)C(=O)N[C@@H]1CCNc2ccc(Oc3ccc(Cl)cc3)cc21 [Compound 1025],0.1 ± 0.03,12.1 ± 3.52,24.8,9.7 ± 1.32,52.9 ± 4.46,,,,,1.18 ± 1.18,,,0.3,,
Cc1cc(O)cc(C)c1C[C@H](N)C(=O)N[C@@H]1CCNc2cc(Cc3ccccc3)ccc21 [Compound 1023],0.78 ± 0.27,25.8 ± 1.61,91.6,25.4 ± 22.2,18.1 ± 4.92,dns,dns,,,,,,,,
